From paper PMC3697084 (Methods in enzymology, 2010)

Biological target: T1, human red cone opsin (Homo sapiens, UniProt P04000)
T1 sequence (P04000 1-364): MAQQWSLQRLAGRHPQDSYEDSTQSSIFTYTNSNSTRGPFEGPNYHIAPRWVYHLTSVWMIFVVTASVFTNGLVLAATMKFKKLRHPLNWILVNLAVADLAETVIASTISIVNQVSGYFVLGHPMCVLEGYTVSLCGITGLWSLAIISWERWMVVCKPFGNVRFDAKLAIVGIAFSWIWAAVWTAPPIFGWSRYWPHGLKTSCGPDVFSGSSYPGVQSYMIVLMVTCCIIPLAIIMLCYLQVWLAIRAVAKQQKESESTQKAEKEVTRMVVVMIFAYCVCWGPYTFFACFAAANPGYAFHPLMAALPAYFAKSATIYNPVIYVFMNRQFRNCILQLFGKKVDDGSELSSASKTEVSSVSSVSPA
Test: radioactive GTPγS filter binding, transducin activation
Format: biochemical
Details: COS-1 membranes, bovine rod transducin, pH 6.4

With `CC(=O)/C=C/C1=C(C)CCCC1(C)C` [β-ionone] the inverse agonist was “these compounds were found to be inverse agonists to the red cone opsin”.
